{
  "source": "patent US20250215029A1",
  "about": "(Recludix Pharma, Inc., priority 2022, published 2025)",
  "data": [
    {"target": "T1, pY641-STAT6 in PBMC (Homo sapiens, UniProt P42226)", "T1 construct": "Cryopreserved Peripheral Blood Mononuclear Cells (PBMC) are from AllCells; host or cells: cryopreserved PBMC", "T1 sequence (P42226 1-847)": "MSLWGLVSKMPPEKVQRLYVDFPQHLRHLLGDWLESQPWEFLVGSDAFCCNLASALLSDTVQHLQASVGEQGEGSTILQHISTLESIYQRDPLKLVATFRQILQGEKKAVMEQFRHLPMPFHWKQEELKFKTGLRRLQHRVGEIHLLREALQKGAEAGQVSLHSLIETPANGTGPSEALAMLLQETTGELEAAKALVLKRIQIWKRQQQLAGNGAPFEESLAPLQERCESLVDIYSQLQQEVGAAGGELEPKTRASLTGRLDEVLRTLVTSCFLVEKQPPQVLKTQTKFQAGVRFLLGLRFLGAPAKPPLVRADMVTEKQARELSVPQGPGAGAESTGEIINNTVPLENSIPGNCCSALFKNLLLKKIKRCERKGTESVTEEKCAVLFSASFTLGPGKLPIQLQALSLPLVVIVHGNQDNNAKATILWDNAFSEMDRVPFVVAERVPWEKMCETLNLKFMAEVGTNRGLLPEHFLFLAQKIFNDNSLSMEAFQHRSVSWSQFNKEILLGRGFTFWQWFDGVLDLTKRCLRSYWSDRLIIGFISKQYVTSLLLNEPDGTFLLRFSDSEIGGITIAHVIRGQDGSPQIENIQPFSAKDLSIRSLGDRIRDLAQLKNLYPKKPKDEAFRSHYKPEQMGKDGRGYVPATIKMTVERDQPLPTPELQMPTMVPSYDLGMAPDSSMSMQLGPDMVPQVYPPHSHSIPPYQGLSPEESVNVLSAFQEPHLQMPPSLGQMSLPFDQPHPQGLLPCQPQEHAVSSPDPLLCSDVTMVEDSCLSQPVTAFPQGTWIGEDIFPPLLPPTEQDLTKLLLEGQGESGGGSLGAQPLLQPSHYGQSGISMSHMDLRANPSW", "experiment": "MSD-pSTAT-PBMC Assay (pSTAT6, IL-4 stimulated)", "format": "cell-based", "conditions": "STAT6, PBMC, compound 3 hrs, then 1 ng/mL IL-4 for 10 min; Table 115", "in_short": "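MSD electrochemiluminescence read-out: total STAT captured, probed with anti-pY641-STAT6 or anti-pY705-STAT3. Human PBMC, 3 h compound pretreatment, 10 min stimulation (IL-4 1 ng/mL or IL-6 10 ng/mL). Unstimulated signal subtracted, DMSO-normalized, variable-slope IC50.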", "units": {"IC50": "nM"}, "values": [
      {"smiles": "COCCOC(=O)[C@H](COC)NP(=O)(Oc1ccccc1)[C@H](F)c1ccc2sc(C(=O)N[C@H]3CCC[C@H]4CC[C@@H](C(=O)N5C[C@H](c6ccccc6)[C@@H](C#N)C56CC6)N4C3=O)cc2c1", "note": "(stereo partly drawn) [Compound 348, 2-methoxyethyl N-(((S)-(2-(((3S,6S,9aS)-3-((6S,7R)-7-cyano-6-phenyl-4-azaspiro[2.4]heptane-4-carbonyl)-5-oxooctahydro-1H-pyrrolo[1,2-a]azepin-6-yl)carbamoyl)benzo [b]thiophen-5-yl)fluoromethyl) (phenoxy)phosphoryl)-O-methyl-L-serinate]", "IC50": "< 100"},
      {"smiles": "CCCOC(=O)[C@H](C)NP(=O)(Oc1ccccc1)[C@@H](F)c1ccc2sc(C(=O)N[C@H]3CCC[C@H]4CC[C@@H](C(=O)N5C[C@@H](c6cccc(C)c6)[C@H](C#N)C56CC6)N4C3=O)cc2c1", "note": "(single isomer, unassigned) [Compound 341]", "IC50": "< 100"},
      {"smiles": "COC(C)(C)COC(=O)[C@H](C)NP(=O)(Oc1ccccc1)[C@@H](F)c1ccc2sc(C(=O)N[C@H]3CCCC[C@H]4CC[C@@H](C(=O)N5C[C@@H](c6cccnc6)CC56CC6)N4C3=O)cc2c1", "note": "(stereo partly drawn) [Compound 358, 2-methoxy-2-methylpropyl (((R)-fluoro(2-(((3S,6S,10aS)-5-oxo-3-((R)-6-(pyridin-3-yl)-4-azaspiro[2.4]heptane-4-carbonyl)decahydropyrrolo[1,2-a]azocin-6-yl)carbamoyl)benzo [b]thiophen-5-yl)methyl)(phenoxy)phosphoryl)-L-alaninate]", "IC50": "< 100"},
      {"smiles": "CCCOC(=O)[C@H](C)NP(=O)(Oc1ccccc1)C(F)c1ccc2sc(C(=O)N[C@H]3CCCC[C@H]4CC[C@@H](C(=O)N5C(=O)N(c6cccc7c6OC(F)(F)O7)C(=O)C56CC6)N4C3=O)cc2c1", "note": "(stereo partly drawn) [Compound 982, propyl (((2-(((3S,6S,10aS)-3-(6-(2,2-difluorobenzo[d][1, 3]dioxol-4-yl)-5,7-dioxo-4,6-diazaspiro [2.4]heptane-4-carbonyl)-5-oxodecahydropyrrolo [1,2-a]azocin-6-yl)carbamoyl)benzo [b]thiophen-5-yl)fluoromethyl) (phenoxy)phosphoryl)-L-alaninate]", "IC50": "> 3000"},
      {"smiles": "C[C@H](NP(=O)(Oc1ccccc1)[C@@H](F)c1ccc2sc(C(=O)N[C@H]3CCCC[C@H]4CC[C@@H](C(=O)N5C[C@@H](c6cccnc6)CC56CC6)N4C3=O)cc2c1)C(=O)OCc1ccccn1", "note": "(stereo partly drawn) [Compound 385, pyridin-2-ylmethyl (((R)-fluoro(2-(((3S,6S,10aS)-5-oxo-3-((R)-6-(pyridin-3-yl)-4-azaspiro[2.4]heptane-4-carbonyl)decahydropyrrolo[1,2-a]azocin-6-yl)carbamoyl)benzo [b]thiophen-5-yl)methyl)(phenoxy)phosphoryl)-L-alaninate]", "IC50": "< 100"},
      {"smiles": "CCCOC(=O)[C@H](C)NP(=O)(Oc1ccccc1)[C@@H](F)c1ccc2sc(C(=O)N[C@H]3CCCC[C@H]4CC[C@@H](C(=O)N5C(=O)N(c6ccc(OC)nc6)C(=O)C56CC6)N4C3=O)cc2c1", "note": "(stereo partly drawn) [Compound 329, propyl (((R)-fluoro(2-(((3S,6S,10aS)-3-(6-(6-methoxypyridin-3-yl)-5,7-dioxo-4,6-diazaspiro[2.4]heptane-4-carbonyl)-5-oxodecahydropyrrolo [1,2-a]azocin-6-yl)carbamoyl)benzo [b]thiophen-5-yl)methyl)(phenoxy)phosphoryl)-L-alaninate]", "IC50": "> 3000"},
      {"smiles": "CCCOC(=O)[C@H](C)NP(=O)(Oc1ccccc1)[C@H](F)c1ccc2sc(C(=O)N[C@H]3CCC[C@H]4CC[C@@H](C(=O)N5C[C@@H](c6ccccc6)[C@H](C#N)C56CC6)N4C3=O)cc2c1", "note": "(stereo partly drawn) [Compound 387, propyl (((S)-(2-(((3S,6S,9aS)-3-((6R,7S)-7-cyano-6-phenyl-4-azaspiro[2.4]heptane-4-carbonyl)-5-oxooctahydro-1H-pyrrolo[1,2-a]azepin-6-yl)carbamoyl)benzo [b]thiophen-5-yl)fluoromethyl) (phenoxy)phosphoryl)-L-alaninate]", "IC50": "< 100"},
      {"smiles": "CCCOC(=O)[C@H](C)NP(=O)(Oc1ccccc1)C(F)c1ccc2sc(C(=O)N[C@H]3CCCC[C@H]4CC[C@@H](C(=O)N5C(=O)N(c6cccnc6)CC56CC6)N4C3=O)cc2c1", "note": "(stereo partly drawn) [Compound 467, propyl ((fluoro(2-(((3S,6S,10aS)-5-oxo-3-(5-oxo-6-(pyridin-3-yl)-4,6-diazaspiro[2.4]heptane-4-carbonyl)decahydropyrrolo[1,2-a]azocin-6-yl)carbamoyl)benzo [b]thiophen-5-yl)methyl)(phenoxy)phosphoryl)-L-alaninate]", "IC50": "> 3000"},
      {"smiles": "CC(C)COC(=O)[C@H](C)NP(=O)(Oc1ccccc1)[C@@H](F)c1ccc2sc(C(=O)N[C@H]3CCCC[C@H]4CC[C@@H](C(=O)N5C[C@@H](c6cccnc6)CC56CC6)N4C3=O)cc2c1", "note": "(stereo partly drawn) [Compound 417, isobutyl (((R)-fluoro(2-(((3S,6S,10aS)-5-oxo-3-((R)-6-(pyridin-3-yl)-4-azaspiro[2.4]heptane-4-carbonyl)decahydropyrrolo[1,2-a]azocin-6-yl)carbamoyl)benzo [b]thiophen-5-yl)methyl)(phenoxy)phosphoryl)-L-alaninate]", "IC50": "< 100"},
      {"smiles": "C[C@H](NP(=O)(Oc1ccccc1)[C@H](F)c1ccc2sc(C(=O)N[C@H]3CCC[C@H]4CC[C@@H](C(=O)N5C[C@H](c6ccccc6)[C@@H](C#N)C56CC6)N4C3=O)cc2c1)C(=O)OC1CC1", "note": "(stereo partly drawn) [Compound 350, cyclopropyl (((S)-(2-(((3S,6S,9aS)-3-((6S,7R)-7-cyano-6-phenyl-4-azaspiro[2.4]heptane-4-carbonyl)-5-oxooctahydro-1H-pyrrolo[1,2-a]azepin-6-yl)carbamoyl)benzo [b]thiophen-5-yl)fluoromethyl) (phenoxy)phosphoryl)-L-alaninate]", "IC50": "< 100"},
      {"smiles": "CCCOC(=O)[C@H](C)NP(=O)(Oc1ccccc1)[C@@H](F)c1ccc2sc(C(=O)N[C@H]3CCCC[C@H]4CC[C@@H](C(=O)N5C(=O)N(c6cncc(C(F)F)c6)C(=O)C56CC6)N4C3=O)cc2c1", "note": "(stereo partly drawn) [Compound 333, propyl (((R)-(2-(((3S,6S,10aS)-3-(6-(5-(difluoromethyl)pyridin-3-yl)-5,7-dioxo-4,6-diazaspiro[2.4]heptane-4-carbonyl)-5-oxodecahydropyrrolo [1,2-a]azocin-6-yl)carbamoyl)benzo [b]thiophen-5-yl)fluoromethyl) (phenoxy)phosphoryl)-L-alaninate]", "IC50": "> 3000"},
      {"smiles": "CCCOC(=O)[C@H](C)NP(=O)(Oc1ccccc1)[C@@H](F)c1ccc2sc(C(=O)N[C@H]3CCCC[C@H]4CC[C@@H](C(=O)N5C(=O)N(c6cnccc6C)C(=O)C56CC6)N4C3=O)cc2c1", "note": "(stereo partly drawn) [Compound 334, propyl (((R)-fluoro(2-(((3S,6S,10aS)-3-(6-(4-methylpyridin-3-yl)-5,7-dioxo-4,6-diazaspiro[2.4]heptane-4-carbonyl)-5-oxodecahydropyrrolo [1,2-a]azocin-6-yl)carbamoyl)benzo [b]thiophen-5-yl)methyl)(phenoxy)phosphoryl)-L-alaninate]", "IC50": "< 100"},
      {"smiles": "CCCOC(=O)[C@H](C)NP(=O)(Oc1ccccc1)C(F)(F)c1ccc2ccc(C(=O)N[C@H]3CCCC[C@H]4CC[C@@H](C(=O)N5CCC(c6cccnc6)C5)N4C3=O)cc2c1", "note": "(stereo partly drawn) [Compound 312, propyl ((difluoro(7-(((3S,6S,10aS)-5-oxo-3-(3-(pyridin-3-yl)pyrrolidine-1-carbonyl)decahydropyrrolo[1,2-a]azocin-6-yl)carbamoyl)naphthalen-2-yl)methyl)(phenoxy)phosphoryl)-L-alaninate]", "IC50": "> 3000"}
    ]}
  ]
}
